According to patent publication US5593835A, “Methods and kits for RNA binding compounds” (President and Fellows of Harvard College, priority 1995, dated 1997):

Experiments:
RRE region of HIV RNA = assay: Fluorescence binding and competitive binding to RRE RNA; details: competition, 100 nM RNA, 15 nM fluorescent tobramycin, 20° C., pH 7.4; read-out: Dissociation Constant (KD) RRE RNA
Experimental: In order to quantitatively determine whether fluorescently labelled tobramycin and other antibiotics bind directly to the RRE region and/or to other regions of the HIV RNA, and with what affinity, the RRE and TAR regions of HIV RNA were prepared and used in the method of the invention as target RNAs.
For binding studies, different concentrations of RRE RNA (from 0 to 300 nm) were mixed with a constant concentration (15 nM) PYT in Binding buffer (140 mM NaCl, 1 mM MgCl2, 20 mM HEPES, pH 7.4), 2 ml total volume, for 1-5 min. at 20° C. in a semimicro-cell cuvette. The fluorescence was measured on a Perkin-Elmer Model 512 double beam fluorescence spectrophotometer. The excitation wavelength used was 330 nm. The intensities of fluorescence emission at 390 nm were used to calculate dissociation constants. Generally 8 to 12 points were used for calculation.
In other competitive binding studies, TAR or RRE RNA was added at a constant concentration of 100 nM±5% and PYT at 15 nM. Different concentrations of competitive antibiotic (tobramycin (o-60 μM), gentamicin C (0-100 μM), neomycin B (0-4 μM), or lividomycin A (0-100 μM) or Rev protein (0-6 μM) were mixed with constant concentrations of RNA (100 nM TAR or RRE) and C1PYT (15 nM), in Binding buffer (140 mM NaCl, 5 mM KCl, 1 mM MgCl2, 20 mM HEPES, pH 7.4), 2 ml total volume, for 1-5 min. at 20° C. in a semimicrocell cuvette. The fluorescence was measured on a Perkin-Elmer Model 512 double beam fluorescence spectrophotometer. The excitation wavelength used was 330 nm. The intensities of fluorescence emission at 390 nm were used to calculate dissociation constants. Generally 8 to 12 points were used for calculation.
Wild type and mutant RRE RNAs were transcribed in vitro by T7 RNA polymerase using synthetic oligonucleotide templates, as described by Milligan et al. (Meth. Enzymol. (1989) 180: 51-62).
(§1) Competition binding measurements of antibiotics with RNA and PYT were performed at constant concentrations of PYT and RNA by monitoring fluorescence intensity changes as a function of changing concentrations of the antibiotics (a standard fluorescence curve). The KD s for the antibiotics were calculated by the curve fitting of the fluorescence intensity of PYT as a function of antibiotic concentration, using the following equation: […]

[1] = system: W13 RNA having SEQ ID NO:1; assay: Fluorescence (PYT quenching) titration and competition binding to W13 RNA; details: for competition with PYT binding (in words): fluorescence competition assay
Experimental: To study the binding behavior of clone W13, a fluorescently labelled pyrene-conjugated tobramycin derivative "PYT" was prepared.
For competitive binding studies, different concentrations of antibiotic (glucosamine (0-10 mM), erythromycin (0-6 mM), gentamicin C (0-700 μM), or neomycin B (0-650 μM)), were mixed with constant concentrations of RNA (300 nM W13) and PYT (150 nM), in Binding buffer (140 mM NaCl, 5 mM KCl, 1 mM MgCl2, 1 mM CaCl2, 20 mM HEPES, pH 7.4), 750 μl total volume, for 1-5 min. at 20° C. in a semimicro-cell cuvette. The fluorescence was measured on a Perkin-Elmer Model 512 double beam fluorescence spectrophotometer. The excitation wavelength used was 341 nm. The intensities of fluorescence emission at 380 nm were used to calculate dissociation constants. Generally 8 to 10 points were used for calculation.
(§2) Steady state fluorescence measurements were performed on a double beam fluorescence spectrometer (Perkin-Elmer Model 512, Norwalk, Conn.). The excitation wavelength was 341 nm. All measurements were done at 20° C. in 140 mM NaCl, 5 mM KCl, 1 mM CaCl2, 1 mM MgCl2, and 20 mM HEPES, pH 7.4. The KD of the PYT and the RNA aptamer was calculated by the curve fitting of the fluorescence intensity as a function of RNA concentration, using the following equation
(assuming a 1:1 complex): I=Io +0.5Δε ([PYT]o
-(([PYT]o +[RNA]o KI)^2 -4[PYT]o [RNA]o)^0.5)
Competition binding measurements of antibiotics with RNA and PYT were performed at constant concentrations of PYT and RNA by monitoring fluorescence intensity changes as a function of changing concentrations of the antibiotics (a standard fluorescence curve). The KD s for the antibiotics were calculated by the curve fitting of the fluorescence intensity of PYT as a function of antibiotic concentration, using the following equation:
I=Io +Δε[PYT.circle-solid.RNA]
[PYT.circle-solid.RNA]=0.5(([PYT]o +[RNA]o)([RNA]o
+KD)+KI ([T]o +[RNA]o +KD)-((([PYT]o
+[RNA]o)([RNA]o +KD)+KI ([T]o +[RNA]o
+KD))^2 -4([RNA]o +KD) [PYT]o [RNA]o
([RNA]o +KD))^0.5)([RNA]o +KD) (equation 2)
KD and KI are the dissociation constants for the antibiotic and PYT respectively.
[T]o is the total concentration of antibiotic added. Measurements were taken at least twice for each measured KD.

[2] = target: clone W13 RNA (SEQ ID NO:1), tobramycin-selected RNA aptamer; assay: Equilibrium dialysis binding to clone W13 RNA; details: equilibrium dialysis, direct; read-out: KD
Experimental: One of these RNAs, clone W13 (SEQ ID NO:1) was chosen for quantitative studies to determine the specificity of its binding to RNA. […] The dissociation constant for tobramycin was determined to be 3 μM by competition studies with ^3 H-acetyl tobramycin. These values are close to those measured for tobramycin and ^3 H-acetyl tobramycin binding to ribosomal targets (LeGoffic et al. (1979) Eur. J. Biochem. 102: 73-81).
Equilibrium dialysis measurements were performed according to the procedure of Lorsch et al. (Biochem. (1994) 33: 973-982).

[3] = target: X1s1 RNA (SEQ ID NO: 3), synthetically derived from the predicted structures; assay: Fluorescence binding measurements, X1s1 RNA; details: K1 - high affinity; footnote b: ligand is 6'N4-pyreneacetyl tobramycin; read-out: Dissociation Constants K1(PYT)
Experimental: (§3) The binding of tobramycin to two cloned RNAs X1 (SEQ ID NO:2) and J6 (SEQ ID NO:5), representative of both classes of consensus sequences, was measured using the fluorescence techniques described in the exemplification.
(§4) *synthetically derived from the predicted structures
as §2, §1

[4] = target: J6a1 RNA (SEQ ID NO: 5), synthetically derived from the predicted structures; assay: Fluorescence binding measurements, J6a1 RNA; details: K1 - high affinity; fluorescent ligand per footnote a/b; read-out: Dissociation Constants K1(PYT)
Experimental: as §3, §4, §2, §1

[5] = target: random selected RNA pool (low stringency tobramycin column); assay: Fluorescence assay, average binding of the random selected RNA pool; details: overall selected pool mixture
Experimental: To determine whether the W13 RNA clone is representative of the average binding capacity of the random selected RNA pool, the average KD values for the random selected pool were measured. […] Therefore, the W13 RNA is representative of the average binding capacity of the random selected pool.
as §2, §1

J6 RNA (SEQ ID NO:5) = assay: Fluorescence binding measurements, J6 RNA; details: K1 - high affinity; fluorescent ligand per footnote a/b; read-out: Dissociation Constants K1(PYT)
Experimental: as §3, §2, §1

[6] = system: RNA pool transcribed from DNA after the sixth selection, bound to tobramycin affinity column; assay: Elution of bound RNA from tobramycin affinity column; assay type: binding; details: 10 column volumes of selection buffer containing 50 mM D-glucosamine
Text: Elution patterns of the RNA from the columns are shown in FIG. 4 for the second and sixth selections. Over 6 cycles of selection, the percentages of RNA specifically eluted with tobramycin were <0.1%, 3.0%, 2.9%, 26%, 55%, and 82%. […] The RNA pool transcribed from DNA after the sixth selection could not be eluted from the affinity column, even after 100 column volumes of selection buffer.
An N-hydroxysuccinimide Affi-Gel affinity column (Bio-Rad, Hercules, Calif.) was derivatized with either 20 μmoles or 0.075 μmoles tobramycin per ml of gel to generate the affinity columns. Excess N-hydroxysuccinimide linkages were blocked by adding 1M ethanolamine. The resulting column served as the support for the RNA selections. The tobramycin concentration on column was estimated as about 15 mM. Selections were performed in 1 ml column volumes in a buffer (selection buffer) containing 140 mM NaCl, 5 mM KCl, 1 mM CaCl2, 1 mM MgCl2, and 20 mM Tris acetate, pH 7.4 (Bock et al. (1992) Nature 355: 564-566). A 1 ml Affi-Gel 10 pre-column treated with ethanolamine was used in all selections.
The original double stranded DNA pool was constructed by large scale PCR amplification of the synthesized 109mer random DNA pool (Oligos, Etc., Inc., Wilsonville, Oreg.) containing 60 random nucleotides. […]

[7] = fluorescence, competition with PYT (150 nM PYT, 300 nM W13), 20° C., pH 7.4, N.B. = no measurable binding

Molecule | Kd (RRE region of HIV RNA) | competition with PYT binding (in words) [1] | Kd [1, 7] | other results
NC[C@@H]1O[C@H](O[C@H]2[C@@H](O)[C@H](O[C@@H]3[C@@H](O)[C@H](N)C[C@H](N)[C@H]3O[C@H]3O[C@H](CN)[C@@H](O)[C@H](O)[C@H]3N)O[C@@H]2CO)[C@H](N)[C@@H](O)[C@@H]1O [neomycin B] | 419 ± 3.8 nM | potent inhibitors of binding | – | –
CC(=O)NCC1OC(OC2C(N)CC(N)C(OC3OC(CO)C(O)C(N)C3O)C2O)C(N)CC1O (stereo not shown) [^3 H-acetyl tobramycin, 6-N-^3 H-Acetyl Tobramycin] | – | – | – | Kd [2]: 1300 nM
N[C@@H]1[C@@H](O)[C@@H](O[C@@H]2[C@@H](O)[C@H](O[C@H]3O[C@H](CNC(=O)Cc4ccc5ccc6cccc7ccc4c5c67)[C@@H](O)C[C@H]3N)[C@@H](N)C[C@H]2N)O[C@H](CO)[C@H]1O [6'N4-pyreneacetyl tobramycin, 6'-N-4-pyreneacetyl tobramycin] | – | – | – | Kd [3]: 65.1 ± 7.4 nM
gentamicin | 10800 ± 680 nM | potent inhibitors of binding | 4700 ± 4000 nM | –
CC[C@H]1OC(=O)[C@H](C)[C@@H](O[C@H]2C[C@@](C)(OC)[C@@H](O)[C@H](C)O2)[C@H](C)[C@@H](O[C@@H]2O[C@H](C)C[C@H](N(C)C)[C@H]2O)[C@](C)(O)C[C@@H](C)C(=O)[C@H](C)[C@@H](O)[C@]1(C)O [erythromycin] | – | only weakly inhibited PYT binding | 505000 ± 25000 nM | –
N[C@@H]1[C@@H](O)[C@@H](O[C@@H]2[C@@H](O)[C@H](O[C@H]3O[C@H](CNC(=O)CCCc4ccc5ccc6cccc7ccc4c5c67)[C@@H](O)C[C@H]3N)[C@@H](N)C[C@H]2N)O[C@H](CO)[C@H]1O [PYT, 6'-N-4-pyrenebutyryl tobramycin] | – | – | 20 ± 7 nM | Kd [4]: 286 ± 10 nM; Kd [5]: 52 ± 8 nM; Kd (J6 RNA (SEQ ID NO:5)): 5.38 ± 0.46 nM; Kd ([1]; fluorescence intensity of PYT as function of RNA concentration, 1:1 complex, 20° C., pH 7.4): 20 ± 4 nM; times more tightly bound than tobramycin ([1]; ratio of KD values, PYT vs tobramycin): more than 200 times
N[C@H]1C(O)O[C@H](CO)[C@@H](O)[C@@H]1O (stereo partly drawn) [D-glucosamine] | – | did not measurably compete with PYT binding | – | KD (μM) [1, 7]: N.B.; elution of bound RNA from tobramycin affinity column (in words) [6]: did not cause any bound RNA to be eluted
NC[C@@H]1O[C@H](O[C@H]2[C@@H](O)[C@H](O[C@@H]3[C@@H](O)[C@H](N)C[C@H](N)[C@H]3O[C@H]3O[C@H](CO)[C@@H](O)C[C@H]3N)O[C@@H]2CO)[C@H](N)[C@@H](O)[C@@H]1O[C@H]1O[C@H](CO)[C@@H](O)[C@H](O)[C@@H]1O [lividomycin-A, lividomycin A] | 11900 ± 330 nM | – | – | –
